Laboratory results published in patent publication US9434701B2, “Aminoquinoxaline derivatives for treatment of neurodegenerative diseases” (CENTRE NATIONAL DE LA RECHERCHE SCIENTIFIQUE (CNRS), priority 2011, dated 2016).

Experiments:
[1] = system: dopaminergic fibers in the striatum and dopaminergic neurons in the substantia nigra; assay: neuroprotection in mice lesioned by intranasal MPTP (animal model of Parkinson's disease), TH immunohistochemistry; type: in vivo; conditions: oral 150 mg/kg twice daily 2 days then 75 mg/kg once daily
Excerpt: The goal of this study is to test by an […] study the neuroprotective activity of compound 4bc administered orally to a mouse after it is poisoned by intranasal administration of MPTP. The food intake and weight of the animals were also compared to a control group. The densitometric analysis of striatal fibers and count of dopaminergic cell bodies in the substantia nigra, after immunohistochemical marking of tyrosine hydroxylase enabled quantifying the neuroprotective effect of the compound.
30 male C57BL\6J mice aged 3 months (supplier: Janvier Breeding Center) were used during this study.
Compound 4bc was administered orally at a dose of 150 mg/kg to 10 mL/kg, twice daily for two days, and then 75 mg/kg once daily. The carrier was composed of 0.5% Tween 80+99.5% carboxymethylcellulose (at 1% in water). A curved rigid tube connected to a 1 mL Terumo syringe was used for administration.
MPTP, a toxin specific for dopaminergic neurons was administered intranasally. One mg (10 μl) of MPTP/HCl (Sigma) dissolved in a 0.9% NaCl solution was delivered per nostril with a 3-minute interval between the two nostrils. […]
To quantify the neuroprotective capacity of compound 4bc, an immunohistochemistry study was done on floating brain slices. Two brain anatomic structures were analyzed: the striatum (20 μm slices, 10 levels) and the substantia nigra (20 μm slices, 7 levels). […]

[2] = IP study in rats: brain extract and plasma concentration; type: in vivo
Description: The kinetics in mouse brain and plasma of compound 4bc after IP administration are also shown in FIG. 8. • Another study was done in rats treated by IP. These rats received a treatment of 20 or 45 mg/kg at 10 mL/kg of a solution of compound 4bc over 2 days comprising 2 IP injections the first day and 1 IP injection the second day.

[3] = IP 20 mg/kg at 10 mL/kg, approximately 3 h

Question: What does the source list for `Cc1nc2ccc(N)cc2nc1-c1ccccc1` [Compound 4bc]?
Answer: neuroprotective activity on dopaminergic fibers in vivo (FIGS. 9 and 10) ([1]; intranasal MPTP, Mann-Whitney test): significant neuroprotective activity; mild toxicity in animals who received only the compound (T/NL) ([1]; not lesioned): not significant; Brain extract concentration [2, 3]: 0.1 µg/mL; Plasma concentration [2, 3]: 400 ng/mL; Brain extract concentration ([2]; IP 45 mg/kg at 10 mL/kg, approximately 1 h): 5.1 µg/mL
